Here are results for two molecules from patent US20260116845A1, “LIPIDS AND COMPOSITIONS THEREOF” (Kernal Biologics, Inc., priority 2023, published 2026).

Each structure is given as a SMILES string.

In one data set the test system is MC38.K Cell Line. As to the kind of experiment: Transfection of MC38.K Cell Line with FLuc mRNA LNPs (ONE-Glo EX luciferase signal). The class given is cell-based. The settings on record: 200 ng Fluc mRNA-LNP, 24 hours; Table 4. The procedure, abridged: (§1)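 Firefly luciferase luminescence measured 24 h after transfection with 200 ng mRNA-LNP per well in Opti-MEM. Seeding: 5,000 cells/well for B16F10 and MC38.K, 20,000 for AML12. LNPs were pre-incubated 30 min with mouse serum; mRNA content determined by RiboGreen.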

The subject of another data set is B16F10 Cell Line. As to the kind of experiment: Transfection of B16F10 Cell Line with FLuc mRNA LNPs (ONE-Glo EX luciferase signal). The settings on record: 200 ng Fluc mRNA-LNP, 24 hours; Table 4. It is filed as cell-based. The procedure, abridged:
as §1

Another data set has as its system Liver. As to the kind of experiment: Ex-vivo luminescence signal from liver after IV Fluc mRNA LNPs in CD1 mice (IVIS). The settings on record: tail vein 1.0 mg/kg Day 0 and Day 2, imaging 18 hours after second dose, Table 4.
A further data set deals with Balb/c mice. As to the kind of experiment: Multi-dose tolerability screening of NT-beta-Actin mRNA LNPs in naive Balb/c mice. It is filed as in vivo. The following applies: 1.0 mg/kg IV twice a week for four weeks. The procedure: Multi-dose Tolerability Screening of Compound 23-LNPs: Compound 23 and Benchmark 1 were formulated using a standard process method and injected (1.0 mg/kg, IV) twice a week for four weeks into naïve Balb/c mice. NT-beta-Actin mRNA LNPs were administered IV to Balb/c mice via the tail vein for a total of eight doses (twice a week for four consecutive weeks) at a concentration of 1.0 mg/kg. Bodyweights were monitored and blood was collected pre-dose, 24 hours post first dose, 24 hours post-fourth dose, and 24 hours post-eighth dose and analyzed for cytokines, blood chemistry, and liver/spleen weights. Data analysis was performed in Graphpad Prism 10. Values are reported as mean+/−standard deviation, unless specified otherwise. […] N=6 per group.

A further data set has as its system MC38.K tumors. As to the kind of experiment: Intratumor delivery of Firefly Luciferase mRNA-LNPs in MC38.K tumor-bearing mice (IVIS). It is filed as in vivo. The settings on record: Albino B6 mice, MC38.K tumors 250 mm^3, 1.0 mg/kg intratumoral, IVIS 18 hours post dose. Here is the method:
Intratumor Delivery of Compound 23 versus Benchmark 1. Albino B6 mice were inoculated with MC38.K cancer cells. Once tumors reached 250 mm^3, 1.0 mg/kg of Firefly Luciferase mRNA-LNPs containing either Benchmark 1 or Compound 23 as the ionizable lipid component was dosed intratumorally. Takedown and IVIS imaging were performed 18 hours post dose. N=5 mice per group.

The subject of another data set is C57BL/6 mice. As to the kind of experiment: Multi-dose tolerability screening of NT-beta-Actin mRNA LNPs in MC38.K-inoculated C57BL/6 mice. It is filed as in vivo. The settings on record: C57BL/6 mice with MC38.K, 1.0 mg/kg IV twice a week for two weeks. Here is the method:
NT-beta-Actin mRNA LNPs with different ionizable lipids were administered IV to C57BL/6 mice, inoculated with MC38.K cells, via the tail vein for a total of four doses (twice a week for two consecutive weeks) at a concentration of 1.0 mg/kg. Bodyweights were monitored and blood was collected pre-dose, 24 hours post first dose, 24 hours post fourth dose, and analyzed for cytokines, blood chemistry, and liver/spleen weights. Compounds 23, 99 and 101 were formulated using a peripheral process method. C57BL/6 mice were inoculated with MC38.K cells. Once tumors had grown, 1.0 mg/kg (Beta-Actin mRNA) of each LNP was intravenously administered twice a week for two weeks. […] N=6 per group for bodyweights, N=3 for blood analysis. Mean+/−SD.

Data set [1] has as its system Macaca fascicularis Cynomolgus monkeys. As to the kind of experiment: NHP study 2: weekly IV infusion of hEPO mRNA-LNP. It is filed as in vivo. The settings on record: weekly IV infusion 0.1 mg/kg hEPO mRNA-LNP. Here is the method: Male cynomolgus monkeys (Biomere, Richmond CA) were 4-6 years old and weighed 4-7 kg at the initiation of dosing. Monkeys were housed in stainless steel cages and provided with Monkey Diet 5038 daily except during times of fasting. Filtered tap water was provided to the animals ad libitum including during fasting times. Temperature of the animal room was kept between 64-84° F., humidity of 30-70%, and with a light/dark cycle of 12 hours except during designated procedures. Pre-dosing treatment with Famotidine (0.5 mg/kg), Diphenhydramine (5 mg/kg), and Dexamethasone (1 mg/kg) was performed prior to dosing of LNPs. Animals received weekly intravenous IV infusions of human erythropoietin encapsulated mRNA lipid nanoparticles (Compound 23, hEPO mRNA-LNP, 0.1 mg/kg). A total of four doses were administered. Prior and after dosing, body weights and temperature were monitored and blood samples were collected pre-dose, 2, 6, 24, 48, and 168 hours. All procedures were conducted according to the approved IACUC guidelines. The results are shown in FIG. 14, FIG. 15, FIG. 16, and FIG. 17.

The next data set relates to AML12 Cell Line. As to the kind of experiment: Transfection of AML12 Cell Line with FLuc mRNA LNPs (ONE-Glo EX luciferase signal). It is filed as cell-based. The following applies: 200 ng Fluc mRNA-LNP, 24 hours; Table 4. A digest of the protocol:
as §1

The nature of data set [2]: Formulation of mRNA encapsulated lipid nanoparticles (microfluidic mixing, ribogreen assay). It is filed as physicochemical. The following applies: Table 4. The procedure:
mRNA encapsulated lipid nanoparticles (mRNA LNPs) were formulated using microfluidic mixing with a PNI Ignite instrument. Briefly, lipids (ionizable: structural: helper: PEG) were dissolved in ethanol and mixed with and aqueous solution of mRNA. These mRNA-loaded dispersions were then neutralized via a buffer exchange with a pre-determined buffer overnight. Afterwards, formed LNPs were concentrated with Amicon filter centrifugation, filtered, concentration of mRNA determined through a ribogreen assay, and frozen at −80° C. until use.

Turning to `CCCCCCCCCOC(=O)CCCCCCCN(CCO)CCCCCCCC(=O)OC(CCCCCCCC)CCCCCCCCF` (stereo not shown) [Compound 23], in the data set on MC38.K Cell Line, the “Total Luciferin Signal (RLU) In Vitro - MC38.K” value came out at 2.00E+06 RLU. Further, the “Total Luciferin Signal (RLU) In Vitro - B16F10” value with B16F10 Cell Line came to 9.60E+05 RLU. The “Total Liver Tissue Luciferin Signal (Photons/s) Ex-vivo - CD1” value in the data set with Liver was found to be 5.15E+09 Photons/s. The “bodyweights or survival rate” value with Balb/c mice (among Compound 23, Benchmark 1 and delivery buffer) is “Comparable bodyweights or survival rate”. For the same molecule, in the data set with Balb/c mice (versus delivery buffer), the tolerability result is listed as “comparable tolerability”. In the data set on MC38.K tumors, the intratumor delivery performance result is on record as “comparable delivery performance as that of Benchmark 1”. Besides, the survival result in the data set with C57BL/6 mice is given as “all mice survived”. For the same molecule, in data set [1] (4 doses), the “tolerability (body weight, temperature, liver blood chemistry)” value is “reasonable tolerability”. For the same molecule, in data set [1] (four doses), the “generation of red blood cells (hematocrit, absolute reticulocyte counts)” value was “consistent generation of red blood cells over four repeated doses” and the “hEPO protein expression over repeated doses” value is given as “consistent protein expression over repeated doses”. In data set [1] (repeated doses), the “clearance of the lipid from blood / serum” value is “cleared from the blood without any observation of accumulation over repeated doses”. The “Total Luciferin Signal (RLU) In Vitro - AML12” value in the data set on AML12 Cell Line is 4.66E+05 RLU.
On to `CCCCCCCCCOC(=O)CCCCCCCN(CCF)CCCCCCCC(=O)OC(CCCCCCCC)CCCCCCCC` [Compound 43], for which the “mRNA encapsulation in LNP” value in data set [2] is “Inherent Lipid Properties Result in No mRNA Encapsulation”.
